Measured values taken from patent US20230139445A1, “BACTERIAL CELLS WITH IMPROVED TOLERANCE TO DIACIDS” (priority 2016, published 2023).
Read-outs that look alike come from different tables or passages of the source.

How the values were obtained:
[1] = test system: Escherichia coli K-12 MG1655 and evolved isolates; assay type: cell-based; conditions: 45 g/L pimelic acid
Procedure: Five colonies from wild-type K-12 MG1655 and 10 individual colonies deriving from each population were inoculated into 300 μL M9+1% glucose in 96 well deepwell plates and incubated in a 300 rpm plate shaker at 37° C. The next day, cells were diluted 10× in M9+1% glucose and 30 μL was transferred into clear-bottomed 96 well half-deepwell plates (with rectangular wells) containing M9+1% glucose and M9+1% glucose+52.78 g/L glutaric acid or 55.56 g/L adipic acid, such that the final concentration of glutaric acid or adipic acid was 47.5 g/L or 50 g/L, respectively. In addition, cryogenic glycerol stocks of the overnight culture were saved in a 96 well plate format. Half deepwell plates were incubated at 37° C. with 225 rpm shaking in a Growth Profiler (Enzyscreen), with optical scans of the plates taken at 15 minute intervals. Green pixel values integrated over a 1 mm diameter circular area in each well were converted to OD600 values using a previously determined calibration between OD600 and green pixel values.
Additionally, each evolved isolate was tested for cross-tolerance toward other dicarboxylic acids of interest. […] All diacids tested were either the neutral sodium salts, or the free diacid was neutralized with sodium hydroxide to pH 7.0 for testing.

[2] = test system: Escherichia coli K-12 MG1655; experiment: Screening for tolerance in wild-type cells: growth in varying concentrations of neutralized diacid, Biolector; assay type: cell-based; conditions: for tlag (lag time), mean / μ (growth rate), mean: neutralized with sodium hydroxide
Procedure: Escherichia coli K-12 MG1655 was grown overnight in M9 minimal medium+1% glucose and subcultured the following morning to an initial OD600 of 0.05 in M9+1% glucose. Cells were grown to mid-exponential phase (OD600 0.7-1.0) and were back-diluted with fresh medium to an OD600 of 0.7. The diluted cells were used to inoculate M9+1% glucose containing varying concentrations of glutaric acid or adipic acid which were neutralized to pH 7.0 with sodium hydroxide, and growth was measured in FlowerPlates in a Biolector microbioreactor system (m2p-labs) at 37° C. with 1000 rpm shaking. The culture volume in each well was 1.4 mL.

O=C(O)CCCCCC(=O)O [pimelic acid]
growth rate μ (mean) ([1]; strain ADIP1-1): 0.432 h⁻¹ | lag time tlag (mean) ([1]; strain ADIP1-1): 9.6 h | growth rate μ (mean) ([1]; strain ADIP1-9): 0.421 h⁻¹ | lag time tlag (mean) ([1]; strain ADIP1-9): 8.8 h | growth rate μ (mean) ([1]; strain ADIP2-5): 0.474 h⁻¹ | lag time tlag (mean) ([1]; strain ADIP2-5): 11.0 h | growth rate μ (mean) ([1]; strain ADIP2-6): 0.480 h⁻¹ | lag time tlag (mean) ([1]; strain ADIP2-6): 10.6 h | growth rate μ (mean) ([1]; strain ADIP2-10): 0.479 h⁻¹ | lag time tlag (mean) ([1]; strain ADIP2-10): 10.8 h | growth rate μ (mean) ([1]; strain ADIP3-2): 0.438 h⁻¹ | lag time tlag (mean) ([1]; strain ADIP3-2): 8.4 h | growth rate μ (mean) ([1]; strain ADIP3-4): 0.435 h⁻¹ | lag time tlag (mean) ([1]; strain ADIP3-4): 8.5 h | growth rate μ (mean) ([1]; strain ADIP3-8): 0.426 h⁻¹ | lag time tlag (mean) ([1]; strain ADIP3-8): 9.1 h | growth rate μ (mean) ([1]; strain ADIP4-1): 0.348 h⁻¹ | lag time tlag (mean) ([1]; strain ADIP4-1): 9.9 h | growth rate μ (mean) ([1]; strain ADIP4-8): 0.349 h⁻¹ | lag time tlag (mean) ([1]; strain ADIP4-8): 10.3 h | growth rate μ (mean) ([1]; strain ADIP5-2): 0.385 h⁻¹ | lag time tlag (mean) ([1]; strain ADIP5-2): 8.7 h | growth rate μ (mean) ([1]; strain ADIP5-6): 0.483 h⁻¹ | lag time tlag (mean) ([1]; strain ADIP5-6): 8.5 h | growth rate μ (mean) ([1]; strain ADIP6-3): 0.346 h⁻¹ | lag time tlag (mean) ([1]; strain ADIP6-3): 10.4 h | growth rate μ (mean) ([1]; strain ADIP6-9): 0.278 h⁻¹ | lag time tlag (mean) ([1]; strain ADIP6-9): 11.1 h | growth rate μ (mean) ([1]; strain ADIP6-10): 0.360 h⁻¹ | lag time tlag (mean) ([1]; strain ADIP6-10): 9.7 h | growth rate μ (mean) ([1]; strain ADIP7-2): 0.393 h⁻¹ | lag time tlag (mean) ([1]; strain ADIP7-2): 9.0 h | growth rate μ (mean) ([1]; strain ADIP7-5): 0.376 h⁻¹ | lag time tlag (mean) ([1]; strain ADIP7-5): 9.4 h | growth rate μ (mean) ([1]; strain ADIP8-3): 0.235 h⁻¹ | lag time tlag (mean) ([1]; strain ADIP8-3): 12.8 h | growth rate μ (mean) ([1]; strain ADIP8-7): 0.268 h⁻¹ | lag time tlag (mean) ([1]; strain ADIP8-7): 12.8 h | growth rate μ (mean) ([1]; strain ADIP8-10): 0.249 h⁻¹ | lag time tlag (mean) ([1]; strain ADIP8-10): 12.8 h | growth rate μ (mean) ([1]; strain GLUT1-3): 0.369 h⁻¹ | lag time tlag (mean) ([1]; strain GLUT1-3): 10.4 h | growth rate μ (mean) ([1]; strain GLUT1-9): 0.337 h⁻¹ | lag time tlag (mean) ([1]; strain GLUT1-9): 11.9 h | growth rate μ (mean) ([1]; strain GLUT1-10): 0.399 h⁻¹ | lag time tlag (mean) ([1]; strain GLUT1-10): 13.1 h | growth rate μ (mean) ([1]; strain GLUT2-1): 0.362 h⁻¹ | lag time tlag (mean) ([1]; strain GLUT2-1): 11.6 h | growth rate μ (mean) ([1]; strain GLUT2-9): 0.349 h⁻¹ | lag time tlag (mean) ([1]; strain GLUT2-9): 10.3 h | growth rate μ (mean) ([1]; strain GLUT2-10): 0.383 h⁻¹ | lag time tlag (mean) ([1]; strain GLUT2-10): 10.2 h | growth rate μ (mean) ([1]; strain GLUT3-5): 0.280 h⁻¹ | lag time tlag (mean) ([1]; strain GLUT3-5): 17.6 h | growth rate μ (mean) ([1]; strain GLUT3-7): 0.360 h⁻¹ | lag time tlag (mean) ([1]; strain GLUT3-7): 11.5 h | growth rate μ (mean) ([1]; strain GLUT3-9): 0.351 h⁻¹ | lag time tlag (mean) ([1]; strain GLUT3-9): 15.7 h | growth rate μ (mean) ([1]; strain GLUT4-1): 0.378 h⁻¹ | lag time tlag (mean) ([1]; strain GLUT4-1): 12.8 h | growth rate μ (mean) ([1]; strain GLUT4-4): 0.388 h⁻¹ | lag time tlag (mean) ([1]; strain GLUT4-4): 13.2 h | growth rate μ (mean) ([1]; strain GLUT4-10): 0.371 h⁻¹ | lag time tlag (mean) ([1]; strain GLUT4-10): 11.5 h | growth rate μ (mean) ([1]; strain GLUT5-4): 0.433 h⁻¹ | lag time tlag (mean) ([1]; strain GLUT5-4): 12.1 h | growth rate μ (mean) ([1]; strain GLUT5-5): 0.420 h⁻¹ | lag time tlag (mean) ([1]; strain GLUT5-5): 12.8 h | growth rate μ (mean) ([1]; strain GLUT5-9): 0.428 h⁻¹ | lag time tlag (mean) ([1]; strain GLUT5-9): 13.0 h | growth rate μ (mean) ([1]; strain GLUT6-4): 0.356 h⁻¹ | lag time tlag (mean) ([1]; strain GLUT6-4): 11.7 h | growth rate μ (mean) ([1]; strain GLUT6-5): 0.348 h⁻¹ | lag time tlag (mean) ([1]; strain GLUT6-5): 11.3 h | growth rate μ (mean) ([1]; strain GLUT6-10): 0.353 h⁻¹ | lag time tlag (mean) ([1]; strain GLUT6-10): 12.1 h | growth rate μ (mean) ([1]; strain GLUT7-2): 0.349 h⁻¹ | lag time tlag (mean) ([1]; strain GLUT7-2): 11.6 h | growth rate μ (mean) ([1]; strain GLUT7-6): 0.357 h⁻¹ | lag time tlag (mean) ([1]; strain GLUT7-6): 14.8 h | growth rate μ (mean) ([1]; strain GLUT7-7): 0.335 h⁻¹ | lag time tlag (mean) ([1]; strain GLUT7-7): 14.1 h | growth rate μ (mean) ([1]; strain GLUT8-5): 0.349 h⁻¹ | lag time tlag (mean) ([1]; strain GLUT8-5): 11.8 h | growth rate μ (mean) ([1]; strain GLUT8-6): 0.184 h⁻¹ | lag time tlag (mean) ([1]; strain GLUT8-6): 20.9 h | growth rate μ (mean) ([1]; strain GLUT8-9): 0.259 h⁻¹ | lag time tlag (mean) ([1]; strain GLUT8-9): 11.2 h | growth rate μ (mean) ([1]; strain MG1655 (Table 28)): 0.275 h⁻¹ | lag time tlag (mean) ([1]; strain MG1655 (Table 28)): 13.4 h | growth rate μ (mean) ([1]; strain MG1655 (Table 29)): 0.271 h⁻¹ | lag time tlag (mean) ([1]; strain MG1655 (Table 29)): 12.4 h | tlag (lag time), mean ([2]; 10 g/L): 1.9 h | μ (growth rate), mean ([2]; 10 g/L, M9+1% glucose, 37° C): 0.694 h⁻¹ | tlag (lag time), mean ([2]; 20 g/L): 2.4 h | μ (growth rate), mean ([2]; 20 g/L): 0.656 h⁻¹ | tlag (lag time), mean ([2]; 25 g/L): 2.5 h | μ (growth rate), mean ([2]; 25 g/L): 0.572 h⁻¹ | tlag (lag time), mean ([2]; 30 g/L): 3.3 h | μ (growth rate), mean ([2]; 30 g/L): 0.560 h⁻¹ | tlag (lag time), mean ([2]; 35 g/L): 4.1 h | μ (growth rate), mean ([2]; 35 g/L): 0.534 h⁻¹ | tlag (lag time), mean ([2]; 40 g/L): 4.3 h | μ (growth rate), mean ([2]; 40 g/L): 0.439 h⁻¹ | tlag (lag time), mean ([2]; 45 g/L): 4.6 h | μ (growth rate), mean ([2]; 45 g/L): 0.280 h⁻¹ | growth of K-12 MG1655 ([2]; at 45 g/L): Robust growth was still observed
